Measurements published in patent US10287301B2 (Achillion Pharmaceuticals, Inc., priority 2015, dated 2019).
Where two headings read alike, the source gives them in different places.

Biological target: Human Factor D (Homo sapiens (Human), UniProt P00746)
Assay: Human Factor D Assay
Type: biochemical
Summary of the method: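 Thioester cleavage assay: human Factor D (serum-derived, 80 nM final), substrate Z-L-Lys-SBzl with DTNB, both 100 μM final, after 5 min compound preincubation at room temperature.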

[1] = Table 3, Human Factor D 80 nM, substrate Z-L-Lys-SBzl, read-out: IC50 (Stars)

Sequence of Human Factor D (P00746 26-253): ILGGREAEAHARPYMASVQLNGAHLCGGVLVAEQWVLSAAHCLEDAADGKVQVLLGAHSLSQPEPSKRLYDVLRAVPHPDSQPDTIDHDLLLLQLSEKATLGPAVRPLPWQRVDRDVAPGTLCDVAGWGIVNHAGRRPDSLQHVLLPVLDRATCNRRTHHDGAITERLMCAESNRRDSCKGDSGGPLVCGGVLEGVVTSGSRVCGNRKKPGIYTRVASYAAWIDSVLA

CC(=O)c1nn(CC(=O)N2C[C@H](F)C[C@H]2C(=O)Nc2cc(C)cc(Br)n2)c2ccc(-c3cnc(C)nc3)cc12 [Compound 345, (2S,4R)-1-(2-(3-Acetyl-5-(2-methylpyrimidin-5-yl)-1H-indazol-1-yl)acetyl)-N-(6-bromo-4-methylpyridin-2-yl)-4-fluoropyrrolidine-2-carboxamide]
IC50 [1]: < 1000 nM

CC(=O)c1nn(CC(=O)N2C[C@H](F)[C@@H](O)[C@H]2C(=O)Nc2cccc(Br)n2)c2ccc(-c3cnc(C)nc3)cc12 [Compound 346, (2S,3S,4S)-1-(2-(3-Acetyl-5-(2-methylpyrimidin-5-yl)-1H-indazol-1-yl)acetyl)-N-(6-bromopyridin-2-yl)-4-fluoro-3-hydroxypyrrolidine-2-carboxamide]
IC50 [1]: < 1000 nM

CC(=O)c1nn(CC(=O)N2C[C@H](F)C[C@H]2C(=O)Nc2cnc(C)c(Br)n2)c2ccc(-c3cnc(C)nc3)cc12 [Compound 349, (2S,4R)-1-(2-(3-Acetyl-5-(2-methylpyrimidin-5-yl)-1H-indazol-1-yl)acetyl)-N-(6-bromo-5-methylpyrazin-2-yl)-4-fluoropyrrolidine-2-carboxamide]
IC50 [1]: < 1000 nM

CC(=O)c1nn(CC(=O)N2[C@@H]3C[C@@H]3C[C@H]2C(=O)Nc2cncc(Br)n2)c2ccc(-c3cnc(C)nc3)cc12 [Compound 350, (1R,3S,5R)-2-(2-(3-Acetyl-5-(2-methylpyrimidin-5-yl)-1H-indazol-1-yl)acetyl)-N-(6-bromopyrazin-2-yl)-2-azabicyclo[3.1.0]hexane-3-carboxamide]
IC50 [1]: < 1000 nM

COc1cc(Br)nc(NC(=O)[C@@H]2C[C@@H](F)CN2C(=O)Cn2nc(C(C)=O)c3cc(-c4cnc(C)nc4)ccc32)c1 [Compound 351]
IC50 [1]: < 1000 nM

CC(=O)c1nn(CC(=O)N2[C@@H]3C[C@@H]3C[C@H]2C(=O)Nc2cncc(Br)n2)c2ccc(-c3cnc(N)nc3)cc12 [Compound 352, (1R,3S,5R)-2-(2-(3-Acetyl-5-(2-aminopyrimidin-5-yl)-1H-indazol-1-yl)acetyl)-N-(6-bromopyrazin-2-yl)-2-azabicyclo[3.1.0]hexane-3-carboxamide]
IC50 [1]: < 1000 nM

CC(=O)c1nn(CC(=O)N2C[C@H](F)C[C@H]2C(=O)Nc2cncc(Br)n2)c2ccc(-c3cnc(N)nc3)cc12 [Compound 353, (2S,4R)-1-(2-(3-Acetyl-5-(2-aminopyrimidin-5-yl)-1H-indazol-1-yl)acetyl)-N-(6-bromopyrazin-2-yl)-4-fluoropyrrolidine-2-carboxamide]
IC50 [1]: < 1000 nM

CC(=O)c1nn(CC(=O)N2C[C@H](F)C[C@H]2C(=O)Nc2cncc(Br)n2)c2ccc(-c3cnc(C4CC4)nc3)cc12 [Compound 354, (2S,4R)-1-(2-(3-Acetyl-5-(2-cyclopropylpyrimidin-5-yl)-1H-indazol-1-yl)acetyl)-N-(6-bromopyrazin-2-yl)-4-fluoropyrrolidine-2-carboxamide]
IC50 [1]: < 1000 nM

CC(=O)c1nn(CC(=O)N2C[C@H](F)C[C@H]2C(=O)Nc2nc(CC(F)(F)F)cs2)c2ccc(-c3cnc(C)nc3)cc12 [Compound 355, (2S,4R)-1-(2-(3-Acetyl-5-(2-methylpyrimidin-5-yl)-1H-indazol-1-yl)acetyl)-4-fluoro-N-(4-(2,2,2-trifluoroethyl)thiazol-2-yl)pyrrolidine-2-carboxamide]
IC50 [1]: < 1000 nM

CC(=O)c1nn(CC(=O)N2[C@@H]3C[C@@H]3C[C@H]2C(=O)Nc2cncc(Br)n2)c2ccc(-c3cnc(C4CC4)nc3)cc12 [Compound 356, (1R,3S,5R)-2-(2-(3-acetyl-5-(2-cyclopropylpyrimidin-5-yl)-1H-indazol-1-yl)acetyl)-N-(6-bromopyrazin-2-yl)-2-azabicyclo[3.1.0] hexane-3-carboxamide]
IC50 [1]: < 1000 nM

CC(=O)c1nn(CC(=O)N2C[C@H](F)C[C@H]2C(=O)Nc2ccn(CC(F)(F)F)n2)c2ccc(-c3cnc(C)nc3)cc12 [Compound 357, (2S,4R)-1-(2-(3-Acetyl-5-(2-methylpyrimidin-5-yl)-1H-indazol-1-yl)acetyl)-4-fluoro-N-(1-(2,2,2-trifluoroethyl)-1H-pyrazol-3-yl)pyrrolidine-2-carboxamide]
IC50 [1]: < 1000 nM

CC(=O)c1nn(CC(=O)N2C[C@H](F)C[C@H]2C(=O)Nc2cccc(Br)c2Cl)c2ccc(-c3cnc(C)nc3)cc12 [Compound 358, (2S,4R)-1-(2-(3-Acetyl-5-(2-methylpyrimidin-5-yl)-1H-indazol-1-yl)acetyl)-N-(3-bromo-2-chlorophenyl)-4-fluoropyrrolidine-2-carboxamide]
IC50 [1]: < 1000 nM

CC(=O)c1nn(CC(=O)N2C[C@H](F)C[C@H]2C(=O)Nc2cc(Cl)cc(Br)n2)c2ccc(-c3cnc(C)nc3)cc12 [Compound 359, (2S,4R)-1-(2-(3-Acetyl-5-(2-methylpyrimidin-5-yl)-1H-indazol-1-yl)acetyl)-N-(6-bromo-4-chloropyridin-2-yl)-4-fluoropyrrolidine-2-carboxamide]
IC50 [1]: < 1000 nM

Cc1ncc(-c2ccc3c(c2)c(C(C)O)nn3CC(=O)N2C[C@H](F)C[C@H]2C(=O)Nc2cccc(Br)n2)cn1 (stereo partly drawn) [Compound 360, (2S,4R)-N-(6-bromopyridin-2-yl)-4-fluoro-1-(2-(3-(1-hydroxyethyl)-5-(2-methylpyrimidin-5-yl)-1H-indazol-1-yl)acetyl)pyrrolidine-2-carboxamide]
IC50: 1000 to 10000 nM

Cc1ncc(-c2ccc3c(c2)c(C(C)O)nn3CC(=O)N2C[C@H](F)C[C@H]2C(=O)Nc2cccc(Br)n2)cn1 (stereo partly drawn) [Compound 361, (2S,4R)-N-(6-bromopyridin-2-yl)-4-fluoro-1-(2-(3-(1-hydroxyethyl)-5-(2-methylpyrimidin-5-yl)-1H-indazol-1-yl)acetyl)pyrrolidine-2-carboxamide]
IC50 (read-out: IC50 (Stars)): 1000 to 10000 nM

CC(=O)c1nn(CC(=O)N2C[C@H](F)C[C@H]2C(=O)Nc2cccc(Br)n2)c2cc(C(=O)N(C)C)c(-c3cnc(C)nc3)cc12 [Compound 362, 3-acetyl-1-(2-((2S,4R)-2-((6-bromopyridin-2-yl)carbamoyl)-4-fluoropyrrolidin-1-yl)-2-oxoethyl)-N,N-dimethyl-5-(2-methylpyrimidin-5-yl)-1H-indazole-6-carboxamide]
IC50 [1]: < 1000 nM

CC(=O)c1nn(CC(=O)N2[C@@H]3C[C@@H]3C[C@H]2C(=O)Nc2ccn(CC(F)(F)F)n2)c2ccc(-c3cnc(C)nc3)cc12 [Compound 363, (1R,3S,5R)-2-(2-(3-acetyl-5-(2-methylpyrimidin-5-yl)-1H-indazol-1-yl)acetyl)-N-(1-(2,2,2-trifluoroethyl)-1H-pyrazol-3-yl)-2-azabicyclo[3.1.0] hexane-3-carboxamide]
IC50 [1]: < 1000 nM

CC(=O)c1nn(CC(=O)N2[C@@H]3C[C@@H]3C[C@H]2C(=O)Nc2cccc(Br)n2)c2ccc(-c3cnc(N)nc3)cc12 [Compound 364, (1R,3S,5R)-2-(2-(3-Acetyl-5-(2-aminopyrimidin-5-yl)-1H-indazol-1-yl)acetyl)-N-(6-bromopyridin-2-yl)-2-azabicyclo[3.1.0]hexane-3-carboxamide]
IC50 [1]: < 1000 nM

CC(=O)c1nn(CC(=O)N2[C@@H]3C[C@@H]3C[C@H]2C(=O)Nc2cnc(C)c(Br)n2)c2ccc(-c3cnc(C)nc3)cc12 [Compound 365, (1R,3S,5R)-2-(2-(3-Acetyl-5-(2-methylpyrimidin-5-yl)-1H-indazol-1-yl)acetyl)-N-(6-bromo-5-methylpyrazin-2-yl)-2-azabicyclo[3.1.0]hexane-3-carboxamide]
IC50 [1]: < 1000 nM

COc1cc(Br)nc(NC(=O)[C@@H]2C[C@H]3C[C@H]3N2C(=O)Cn2nc(C(C)=O)c3cc(-c4cnc(C)nc4)ccc32)c1 [Compound 366]
IC50 [1]: < 1000 nM

CC(=O)c1nn(CC(=O)N2C[C@H](F)C[C@H]2C(=O)Nc2cccc(Br)n2)c2ccc(-c3cnc(NC4CC4)nc3)cc12 [Compound 367, (2S,4R)-1-(2-(3-Acetyl-5-(2-(cyclopropylamino)pyrimidin-5-yl)-1H-indazol-1-yl)acetyl)-N-(6-bromopyridin-2-yl)-4-fluoropyrrolidine-2-carboxamide]
IC50 [1]: < 1000 nM

CC(=O)c1nn(CC(=O)N2C[C@H](F)C[C@H]2C(=O)Nc2cncc(Cl)n2)c2ccc(-c3cnc(C)nc3)cc12 [Compound 368, (2S,4R)-1-(2-(3-Acetyl-5-(2-methylpyrimidin-5-yl)-1H-indazol-1-yl)acetyl)-N-(6-chloropyrazin-2-yl)-4-fluoropyrrolidine-2-carboxamide]
IC50 [1]: < 1000 nM

CC(=O)c1nn(CC(=O)N2C[C@H](F)C[C@H]2C(=O)Nc2cc(C(F)(F)F)cc(Br)n2)c2ccc(-c3cnc(C)nc3)cc12 [Compound 370, (2S,4R)-1-(2-(3-Acetyl-5-(2-methylpyrimidin-5-yl)-1H-indazol-1-yl)acetyl)-N-(6-bromo-4-(trifluoromethyl)pyridin-2-yl)-4-fluoropyrrolidine-2-carboxamide]
IC50 [1]: < 1000 nM

CC(=O)c1nn(CC(=O)N2[C@H](C(=O)Nc3cccc(Br)n3)C[C@@]3(C)C[C@@H]23)c2ccc(-c3cnc(C)nc3)cc12 [Compound 372, (1R,3S,5R)-2-(2-(3-Acetyl-5-(2-methylpyrimidin-5-yl)-1H-indazol-1-yl)acetyl)-N-(6-bromopyridin-2-yl)-5-methyl-2-azabicyclo[3.1.0]hexane-3-carboxamide]
IC50 [1]: < 1000 nM

COc1cc2c(cc1-c1cnc(C)nc1)c(C(C)=O)nn2CC(=O)N1C[C@H](F)C[C@H]1C(=O)Nc1cccc(Br)n1 [Compound 373, (2S,4R)-1-(2-(3-Acetyl-6-methoxy-5-(2-methylpyrimidin-5-yl)-1H-indazol-1-yl)acetyl)-N-(6-bromopyridin-2-yl)-4-fluoropyrrolidine-2-carboxamide]
IC50 [1]: < 1000 nM

CC(=O)c1nn(CC(=O)N2C[C@H](F)C[C@H]2C(=O)Nc2cccc(Br)n2)c2ccc(-c3cnc(CO)nc3)cc12 [Compound 374, (2S,4R)-1-(2-(3-Acetyl-5-(2-(hydroxymethyl)pyrimidin-5-yl)-1H-indazol-1-yl)acetyl)-N-(6-bromopyridin-2-yl)-4-fluoropyrrolidine-2-carboxamide]
IC50 [1]: < 1000 nM
